pIC50: −log10 of the molar value. The source made the active and inactive calls. No cut-off for these calls is given here.
What was measured:
[1] = tested on: U-118-MG; test: Antiproliferative activity against human U118MG cells transfected with lentivirus expressing shNC assessed as reduction in cell viability after 24 hrs by MTT assay; format: functional, cell-based
[2] = target: T1, Pyruvate kinase PKM (Homo sapiens, UniProt P14618); test: Inhibition of PKM2 dimer nuclear translocation in human U87 cells assessed as reduction in PKM2 accumulation in nucleus at 0.5 to 1 uM after 48 hrs by Western blot analysis; format: cell-based; conditions: U-87MG ATCC
Target sequence in this assay (P14618 2-531 limits assumed): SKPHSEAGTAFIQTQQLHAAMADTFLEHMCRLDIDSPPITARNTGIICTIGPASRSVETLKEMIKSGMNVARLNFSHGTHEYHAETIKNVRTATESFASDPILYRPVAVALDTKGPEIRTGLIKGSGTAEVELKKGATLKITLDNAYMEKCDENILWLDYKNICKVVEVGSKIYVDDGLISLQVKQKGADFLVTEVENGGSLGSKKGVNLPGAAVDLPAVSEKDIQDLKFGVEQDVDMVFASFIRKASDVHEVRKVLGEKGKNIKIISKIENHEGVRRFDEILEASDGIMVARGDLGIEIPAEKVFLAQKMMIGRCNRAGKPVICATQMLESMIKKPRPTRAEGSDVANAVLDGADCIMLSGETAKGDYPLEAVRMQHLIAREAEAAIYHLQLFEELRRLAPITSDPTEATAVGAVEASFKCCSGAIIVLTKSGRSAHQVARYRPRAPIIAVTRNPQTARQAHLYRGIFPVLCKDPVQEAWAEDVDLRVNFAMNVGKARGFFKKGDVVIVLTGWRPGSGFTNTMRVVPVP

[3] = target: T1, Pyruvate kinase PKM; test: Activation of recombinant human N-terminal 6His-tagged PKM2 expressed in Escherichia coli BL21 cells at 0.2 to 0.5 uM after 50 mins by fluorescence based analysis
Target sequence in this assay (P14618 2-531 limits assumed): as above

[4] = tested on: U-87MG ATCC; test: Effect on IKK-beta protein expression in human U87 cells at 0.2 to 0.5 uM after 48 hrs by Western blot analysis; format: functional, cell-based
[5] = target: T1, Pyruvate kinase PKM; test: Activation of PKM2 in human U87 cells assessed as increase in bax protein expression at 1 to 2 uM after 48 hrs by Western blot analysis; format: cell-based; conditions: U-87MG ATCC
Target sequence in this assay (P14618 2-531 limits assumed): as above

[6] = target: T1, Pyruvate kinase PKM; test: Activation of PKM2 in human U87 cells assessed as reduction in vimentin expression at 1 to 2 uM after 24 hrs by Western blot analysis; format: cell-based; conditions: U-87MG ATCC
Target sequence in this assay (P14618 2-531 limits assumed): as above

[7] = target: T1, Pyruvate kinase PKM; test: Activation of PKM2 in human U118MG cells assessed as increase in bax protein expression at 1 to 2 uM after 48 hrs by Western blot analysis; format: cell-based
Target sequence in this assay (P14618 2-531 limits assumed): as above

[8] = target: T1, Pyruvate kinase PKM; test: Activation of PKM2 in human U118MG cells assessed as inhibition of STAT3 protein expression at 2 uM after 48 hrs by Western blot analysis; format: cell-based
Target sequence in this assay (P14618 2-531 limits assumed): as above

[9] = tested on: U-87 MG; test: Inhibition of colony formation in human U87 cells after 7 days; format: functional, cell-based; conditions: U-87MG ATCC
[10] = tested on: U-118-MG; test: Antimetastatic activity against human U118MG cells assessed as reduction in cell invasion at 2 uM after 24 hrs by crystal violet staining based transwell assay; format: functional
[11] = target: T1, Pyruvate kinase PKM; test: Activation of PKM2 in human U118MG cells assessed as inhibition of STAT3 protein expression at 1 to 2 uM after 24 hrs by Western blot analysis; format: cell-based
[12] = tested on: U-118-MG; test: Induction of apoptosis in human U118MG cells transfected with lentivirus expressing shNC assessed as late apoptotic cells after 48 hrs by Annexin-V-FITC/PI-staining based flow cytometric analysis (reference value: 0.334%); format: functional
[13] = target: T1, Pyruvate kinase PKM; test: Covalent binding affinity to recombinant human N-terminal 6His-tagged PKM2 expressed in Escherichia coli BL21 Cells after 2 hrs by LC-MS/MS analysis
[14] = tested on: U-87 MG; test: Induction of apoptosis in human U87 cells after 48 hrs by Annexin-V-FITC/PI-staining based flow cytometric analysis; format: functional, cell-based; conditions: U-87MG ATCC
[15] = target: T1, Pyruvate kinase PKM; test: Activation of recombinant human N-terminal 6His-tagged PKM2 expressed in Escherichia coli BL21 cells after 50 mins by fluorescence based analysis
Target sequence in this assay (P14618 whole entry): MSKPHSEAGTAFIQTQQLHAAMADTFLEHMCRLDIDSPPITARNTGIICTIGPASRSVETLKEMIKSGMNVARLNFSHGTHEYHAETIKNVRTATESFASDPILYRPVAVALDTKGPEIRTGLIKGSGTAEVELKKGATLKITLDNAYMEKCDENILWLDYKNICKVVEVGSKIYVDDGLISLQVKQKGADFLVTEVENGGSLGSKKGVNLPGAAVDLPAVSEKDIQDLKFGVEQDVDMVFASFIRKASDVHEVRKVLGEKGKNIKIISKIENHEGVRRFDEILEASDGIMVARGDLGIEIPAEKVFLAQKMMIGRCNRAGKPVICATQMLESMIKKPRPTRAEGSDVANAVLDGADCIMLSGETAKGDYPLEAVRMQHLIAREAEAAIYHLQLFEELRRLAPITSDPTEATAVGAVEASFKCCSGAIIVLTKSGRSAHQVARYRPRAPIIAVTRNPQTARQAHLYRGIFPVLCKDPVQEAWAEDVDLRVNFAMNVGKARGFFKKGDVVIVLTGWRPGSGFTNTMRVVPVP

[16] = tested on: C6; test: Antiproliferative activity against rat C6 cells assessed as reduction in cell viability after 72 hrs by MTT assay; format: functional, cell-based; conditions: C6, 72 h
[17] = tested on: U-87 MG; test: Antiproliferative activity against human U87 cells transfected with lentivirus expressing shPKM2 assessed as reduction in cell viability after 24 hrs by MTT assay; format: functional, cell-based, U-87MG ATCC
[18] = tested on: U-118-MG; test: Induction of apoptosis in human U118MG cells transfected with lentivirus expressing shNC assessed as early apoptotic cells after 48 hrs by Annexin-V-FITC/PI-staining based flow cytometric analysis (reference value: 2.56%); format: functional
[19] = tested on: U-118-MG; test: Antimigratory activity against human U118MG cells transfected with lentivirus expressing shNC at 2 uM incubated for 48 hrs by crystal violet staining based transwell assay; format: functional, cell-based
[20] = tested on: U-87 MG; test: Antimetastatic activity against human U87 cells assessed as reduction in cell invasion at 2 uM after 24 hrs by crystal violet staining based transwell assay; format: functional; conditions: U-87MG ATCC
[21] = target: T1, Pyruvate kinase PKM; test: Activation of PKM2 in human U87 cells assessed as reduction in bcl2 expression at 1 to 2 uM after 48 hrs by Western blot analysis; format: cell-based; conditions: U-87MG ATCC
[22] = tested on: U-118-MG; test: Induction of apoptosis in human U118MG cells assessed as viable cells after 48 hrs by Annexin-V-FITC/PI-staining based flow cytometric analysis (reference value: 96.7%); format: functional
[23] = tested on: U-87 MG; test: Induction of apoptosis in human U87 cells transfected with lentivirus expressing shPKM2 assessed as viable cells after 48 hrs by Annexin-V-FITC/PI-staining based flow cytometric analysis (reference value: 97.3%); format: functional, U-87MG ATCC
[24] = tested on: U-118-MG; test: Antiinvasive activity against human U118MG cells transfected with lentivirus expressing shPKM2 at 2 uM incubated for 48 hrs by crystal violet staining based transwell assay; format: functional, cell-based
[25] = tested on: U-87MG ATCC; test: Effect on total PKM2 protein expression in human U87 cells at 0.5 to 5 uM after 48 hrs by Western blot analysis; format: functional, cell-based

SMILES: C=C1C(=O)O[C@H]2[C@H]1CC/C(C(=O)OCCOCCOC(=O)/C1=C/CC[C@@]3(C)O[C@H]3[C@H]3OC(=O)C(=C)[C@@H]3CC1)=C\CC[C@@]1(C)O[C@@H]21
- pIC50 [1]: 5.98
- inhibition [2]: Active
- Activity [3]: Active
- Activity [4]: inactive
- Activity [5]: Active
- Activity [6]: Active
- Activity [7]: Active
- Activity [8]: Active
- inhibition [9]: Dose-dependent effect
- Activity [10]: Active
- Activity [11]: Active
- Activity [12]: 16.4%
- Activity [13]: Active
- Activity [14]: Dose-dependent effect
- AC50 [15]: 15 nM
- pIC50 [16]: 5.78
- pIC50 [17]: 5.75
- Activity [18]: 47.1%
- Activity [19]: Active
- Activity [20]: Active
- Activity [21]: Active
- Activity [22]: 12.5%
- Activity [23]: 93%
- Activity [24]: inactive
- Activity [25]: inactive

Source: ChEMBL document CHEMBL4376892, “Identification of Parthenolide Dimers as Activators of Pyruvate Kinase M2 in Xenografts of Glioblastoma Multiforme in Vivo” (J Med Chem, 2020)
